Assay results from the supplement of paper PMC11061612.

Columns and labels:
Test in all cases: Bliss excess, mean over the matrix (fraction); higher = more synergy
[1] = system: DMS-53 (Small Cell Lung Carcinoma)
Method in brief: (§1)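 After 24 hours at 37°C and 5% CO2 in 1536-well plates, cells in DMEM/F12 or RPMI plus 10% FBS received two-drug dose matrices for 72 hours. Viability came from CellTiter-Glo 2.0 luminescence and was scaled as inhibition, anchored at 0 by vehicle wells and at 1 by blank wells. Combination Emax is taken as the second-highest inhibition in the matrix, and Bliss excess as the observed combination effect less EA + EB − EA·EB, with EA and EB the single-agent effects.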

[2] = system: NCI-H441 (Lung Adenocarcinoma)
Method in brief: as §1

[3] = system: EPLC-272H (Other Solid Carcinomas)
Method in brief: as §1

[4] = system: 22RV1 (Prostate Carcinoma)
Method in brief: as §1

PEO1 (Ovarian Carcinoma) = system: PEO1 (Ovarian Carcinoma)
Method in brief: as §1

[5] = system: NCI-H1703 (Squamous Cell Lung Carcinoma)
Method in brief: as §1

769-P (Kidney Carcinoma) = system: 769-P (Kidney Carcinoma)
Method in brief: as §1

[6] = system: CESS (Acute Myeloid Leukemia)
Method in brief: as §1

[7] = system: MDA-MB-436 (Breast Carcinoma)
Method in brief: as §1

[8] = system: NCI-H2228 (Lung Adenocarcinoma)
Method in brief: as §1

[9] = system: SW620 (Colorectal Carcinoma)
Method in brief: as §1

EW-16 (Ewing's Sarcoma) = system: EW-16 (Ewing's Sarcoma)
Method in brief: as §1

[10] = system: HT55 (Colorectal Carcinoma)
Method in brief: as §1

[11] = system: huH-1 (Hepatocellular Carcinoma)
Method in brief: as §1

NB13 (Neuroblastoma) = system: NB13 (Neuroblastoma)
Method in brief: as §1

[12] = system: GCT (Other Solid Carcinomas)
Method in brief: as §1

[13] = system: NCI-H716 (Colorectal Carcinoma)
Method in brief: as §1

EB2 (Burkitt's Lymphoma) = system: EB2 (Burkitt's Lymphoma)
Method in brief: as §1

[14] = system: JIMT-1 (Breast Carcinoma)
Method in brief: as §1

[15] = system: OACp4C (Esophageal Adenocarcinoma)
Method in brief: as §1

SMILES	Bliss excess [1]	Bliss excess [2]	Bliss excess [3]	Bliss excess [4]	Bliss excess (PEO1 (Ovarian Carcinoma))	Bliss excess [5]	Bliss excess (769-P (Kidney Carcinoma))	Bliss excess [6]	Bliss excess [7]	Bliss excess [8]	Bliss excess [9]	Bliss excess (EW-16 (Ewing's Sarcoma))	Bliss excess [10]	Bliss excess [11]	Bliss excess (NB13 (Neuroblastoma))	Bliss excess [12]	Bliss excess [13]	Bliss excess (EB2 (Burkitt's Lymphoma))	Bliss excess [14]	Bliss excess [15]
CN(CCO)CC[C@H](CSc1ccccc1)Nc1ccc(S(=O)(=O)NC(=O)c2ccc(N3CCC([C@@H](O)c4ccccc4-c4ccc(Cl)cc4)CC3)cc2)cc1S(=O)(=O)C(F)(F)F [AZD4320] + CN(C)CCCOc1ccc(-c2ccc3ncc4c(c3c2)n(C2CCOCC2)c(=O)n4C)cn1 [AZD0156] (first compound max 1 µM, 7x7, partner max 1 µM)	0.0316	-0.022	0.0102	-0.0416	-0.0753	-0.0127	-0.0444	-0.0814	-0.0496	-0.0225	-0.029	-0.003	-0.0158	-0.0419	-0.0371	-0.0401	-0.0214	-0.0028	-0.0344	-0.0257
CCN(CCO)CCCOc1ccc2c(Nc3cc(CC(=O)Nc4cccc(F)c4)[nH]n3)ncnc2c1 [AZD2811] + O=C(c1cc(Cc2n[nH]c(=O)c3ccccc23)ccc1F)N1CCN(C(=O)C2CC2)CC1 [Olaparib] (first compound max 1 µM, 7x7, partner max 10 µM)	-0.014	-0.0417	0.0042	0.0017	-0.0019	0.0062	-0.018	0.0591	-0.0533	-0.021	0.0318	0.0661	0.0248	-0.0014	0.0211	0.0585	0.0047	0.0141	-0.0127	-0.0304
CN(C)CCCOc1ccc(-c2ccc3ncc4c(c3c2)n(C2CCOCC2)c(=O)n4C)cn1 [AZD0156] + CCN(CCO)CCCOc1ccc2c(Nc3cc(CC(=O)Nc4cccc(F)c4)[nH]n3)ncnc2c1 [AZD2811] (first compound max 1 µM, 7x7, partner max 1 µM)	-0.0251	-0.0776	0.0394	-0.0279	-0.0421	0.0059	-0.0343	0.0178	-0.0539	-0.0223	-0.0064	0.0083	0.0091	0.0049	0.0458	-0.0126	-0.0063	-0.0245	-0.0181	0.0091
Cc1c2c(nn1C)CSCc1cc(n(C)n1)CSc1cc(c3ccccc3c1)OCCCc1c(C(=O)O)n(C)c3c-2c(Cl)ccc13 [AZD5991] + CC1(C)CCC(CN2CCN(c3ccc(C(=O)NS(=O)(=O)c4ccc(NCC5CCOCC5)c([N+](=O)[O-])c4)c(Oc4cnc5[nH]ccc5c4)c3)CC2)=C(c2ccc(Cl)cc2)C1 [Venetoclax] (first compound max 1 µM, 7x7, partner max 1 µM)	0.159	-0.0189	-0.015	-0.0149	-0.0145	0.0049	-0.0328	0.0276	-0.0513	-0.0122	-0.037	-0.0326	-0.0244	-0.0534	0.0393	-0.0272	-0.0436	0.0144	-0.0155	0.13
CS(=O)(=O)CCNCc1ccc(-c2ccc3ncnc(Nc4ccc(OCc5cccc(F)c5)c(Cl)c4)c3c2)o1 [Lapatinib] + C[C@@H](Oc1cc(-c2cnn(C3CCNCC3)c2)cnc1N)c1c(Cl)ccc(F)c1Cl [Crizotinib] (first compound max 10 µM, 7x7, partner max 10 µM)	-0.0205	-0.0412	0.0191	-0.108	-0.0422	-0.0733	-0.0331	-0.0826	-0.0237	0.0163	-0.0736	-0.0562	-0.0412	-0.0577	-0.0778	-0.0251	-0.0217	-0.0705	0.0444	-0.0355
COc1nnc2ccc(N3CCC(c4ccc(OCCN5CCN(C)C(=O)[C@H]5C)cc4)CC3)nn12 [AZD5153] + Cc1c2c(nn1C)CSCc1cc(n(C)n1)CSc1cc(c3ccccc3c1)OCCCc1c(C(=O)O)n(C)c3c-2c(Cl)ccc13 [AZD5991] (first compound max 1 µM, 7x7, partner max 1 µM)	0.007	-0.0179	-0.026	0.0107	-0.0209	-0.0186	-0.0716	-0.0124	-0.0167	-0.0261	-0.0457	-0.0412	-0.0445	0.0196	0.0066	-0.0425	0.0076	-0.0614	0.0155	0.0438
CN(C)CCCOc1ccc(-c2ccc3ncc4c(c3c2)n(C2CCOCC2)c(=O)n4C)cn1 [AZD0156] + C=CCn1c(=O)c2cnc(Nc3ccc(N4CCN(C)CC4)cc3)nc2n1-c1cccc(C(C)(C)O)n1 [AZD1775] (first compound max 1 µM, partner max 1 µM)	-0.028	-0.0963	-0.0105	-0.095	-0.0442	-0.051	-0.0025	-0.0059	-0.0623	-0.0934	-0.0262	-0.0464	-0.0671	0.0041	0.0215	-0.0811	0.022	-0.0322	-0.0287	-0.0245
COc1cccc(OCCCN)c1-c1cc(Nc2cnc(C#N)cn2)n[nH]1 [Prexasertib] + C=CCn1c(=O)c2cnc(Nc3ccc(N4CCN(C)CC4)cc3)nc2n1-c1cccc(C(C)(C)O)n1 [AZD1775] (first compound max 1 µM, partner max 1 µM)	0.0883	-0.0383	-0.0284	0.06	0.0825	0.066	0.0163	-0.0059	0.165	0.0199	0.0478	0.155	0.0259	0.0613	-0.0347	0.0294	0.0167	0.0249	0.032	-0.0189
Cc1c2c(nn1C)CSCc1cc(n(C)n1)CSc1cc(c3ccccc3c1)OCCCc1c(C(=O)O)n(C)c3c-2c(Cl)ccc13 [AZD5991] + C[C@@H]1COCCN1C2=NC(=NC(=C2)C3(CC3)[S@](=N)(=O)C)C4=C5C=CNC5=NC=C4 [AZD6738] (first compound max 1 µM, 7x7, partner max 10 µM)	0.0165	0.0073	0.0151	0.0449	0.0062	-0.0108	-0.0333	0.066	-0.0031	-0.0302	0.0191	-0.0304	0.0901	-0.0302	0.012	0.06	0.0138	-0.0097	0.0789	0.0108
Cc1c2c(nn1C)CSCc1cc(n(C)n1)CSc1cc(c3ccccc3c1)OCCCc1c(C(=O)O)n(C)c3c-2c(Cl)ccc13 [AZD5991] + Cc1cc2ncnn2cc1Nc1ncc2c(n1)n(C1CCOCC1)c(=O)n2C [AZD7648] (first compound max 1 µM, 7x7, partner max 10 µM)	0.0011	-0.0529	-0.0575	-0.0528	-0.0279	0.0168	-0.0328	0.0437	-0.042	-0.0413	-0.0421	-0.0174	-0.0152	-0.0224	0.0153	-0.0702	-0.0646	0.0285	-0.0541	0.008
COc1cccc(OCCCN)c1-c1cc(Nc2cnc(C#N)cn2)n[nH]1 [Prexasertib] + CN(C)CCCOc1ccc(-c2ccc3ncc4c(c3c2)n(C2CCOCC2)c(=O)n4C)cn1 [AZD0156] (first compound max 1 µM, 7x7, partner max 1 µM)	-0.0142	-0.0994	-0.0602	-0.0213	-0.0168	-0.0295	0.0193	0.0062	-0.0428	-0.0488	-0.0032	0.023	0.0444	-0.0422	-0.0268	-0.0084	0.025	-0.0088	0.0375	-0.0162
Cn1cnc2c(F)c(Nc3ccc(Br)cc3Cl)c(C(=O)NOCCO)cc21 [Selumetinib] + C[C@@H]1COCCN1C2=NC(=NC(=C2)C3(CC3)[S@](=N)(=O)C)C4=C5C=CNC5=NC=C4 [AZD6738] (first compound max 10 µM, 7x7, partner max 10 µM)	-0.0272	0.0498	-0.0497	0.0144	-0.0357	-0.0318	-0.0122	-0.0205	-0.0064	-0.0098	0.0587	-0.0914	0.004	-0.0551	-0.0446	0.0294	-0.0341	-0.071	-0.0853	-0.0052
C=CCn1c(=O)c2cnc(Nc3ccc(N4CCN(C)CC4)cc3)nc2n1-c1cccc(C(C)(C)O)n1 [AZD1775] + C[C@@H]1COCCN1C2=NC(=NC(=C2)C3(CC3)[S@](=N)(=O)C)C4=C5C=CNC5=NC=C4 [AZD6738] (first compound max 1 µM, partner max 10 µM)	0.0115	-0.0834	0.0036	-0.0536	-0.0234	0.0263	0.0092	0.0388	0.0143	-0.0399	0.0144	0.0132	0.0434	0.019	0.0101	0.0157	-0.0004	0.0589	-0.01	-0.028
COc1cccc(OCCCN)c1-c1cc(Nc2cnc(C#N)cn2)n[nH]1 [Prexasertib] + O=C(c1cc(Cc2n[nH]c(=O)c3ccccc23)ccc1F)N1CCN(C(=O)C2CC2)CC1 [Olaparib] (first compound max 1 µM, 7x7, partner max 10 µM)	-0.0473	-0.101	-0.0631	-0.072	-0.0183	-0.0537	-0.118	-0.0511	0.0035	-0.0834	-0.0457	0.0036	-0.0102	0.0434	-0.0317	0.0068	-0.0673	-0.0373	-0.0182	-0.0222
COc1nnc2ccc(N3CCC(c4ccc(OCCN5CCN(C)C(=O)[C@H]5C)cc4)CC3)nn12 [AZD5153] + Cn1cnc2c(F)c(Nc3ccc(Br)cc3Cl)c(C(=O)NOCCO)cc21 [Selumetinib] (first compound max 1 µM, 7x7, partner max 10 µM)	-0.0043	-0.0338	0.0173	0.0239	-0.0509	-0.0065	-0.0261	-0.0651	-0.0275	-0.0535	-0.0083	-0.0456	0.0584	-0.0102	-0.0616	-0.0506	0.016	-0.0216	-0.0082	0.101
